The record followed here is US20260240846A1, “ZAK ALPHA KINASE (MAP3K20) INHIBITORS FOR USE IN THE TREATMENT OF ANEMIA” (UNIVERSIDAD DE MURCIA, priority 2023, published 2026).

The test system of one test is K562 cells. Kind of test: Erythroid differentiation assay in K562 cells (hemin; hemoglobin accumulation, western blot). In kind it is cell-based, human. The protocol:
FIG. 1. ZAKα/P38 signaling pathway is activated in K562 after erythroid differentiation and its inhibition facilitates terminal erythroid differentiation. K562 cells were pre-treated with 0.1 μM nilotinib (Nil) (A, C, D), 1 μM anisomycin (B) and/or the indicated concentrations of the […] CX-5461 for 24 h, and then differentiated with 50 μM hemin for another 24 h. Hemoglobin accumulation (A, B, D) and NLRP1, phosphorylated P38, GATA1, ZAKα and ACTB (A-C) amounts were then evaluated by western blot. Immunoblots are representative of 3 independent experiments. #1, ACTB; #2, GATA1.
FIG. 2. The ZAKα/P38 signaling pathways is activated in K562 after erythroid differentiation. K562 cells were pre-treated with 0.1 μM nilotinib for 24 h and then differentiated with 50 μM hemin for the indicated times. The amounts of NLRP1, GATA1, phosphorylated P38, total ZAKα, phosphorylated ZAKα (Phos-tag) and ACTB were then evaluated by western blot.
(§1) FIG. 10. Imatinib and dasatinib promote erythropoiesis in human and zebrafish. (A) K562 cells were pretreated with the indicated concentrations of nilotinib, imatinib or dasatinib for 24 h and then differentiated with 50 μM hemin for 24 h. The amounts of NLRP1, GATA1, phosphorylated P38, total ZAKα and ACTB were then evaluated by western blot. (B) Zebrafish larvae were treated from 1 to 2 dpf with the indicated concentrations of nilotinib, imatinib or dasatinib. Representative images and number of neutrophils in larvae of 2 dpf treated by bath immersion with the indicated concentrations of imatinib and dasatinib. Each dot represents one individual and the mean±SEM for each group is also shown. P values were calculated by one-way ANOVA and Tukey's multiple range test. n.s., non-significant. ***P<0.001; ****P<0.0001.
(§2) FIG. 11. Ponatinib and bosutinib promote erythropoiesis in human and zebrafish. (A) K562 cells were pretreated with the indicated concentrations of nilotinib, ponatinib and bosutinib for 24 h and then differentiated with 50 μM hemin for the indicated times. The amounts of NLRP1, total ZAKα, GATA1, phosphorylated P38 and ACTB were then evaluated by western blot. (B) Number of neutrophils in larvae of 2 dpf treated by bath immersion with the indicated concentrations of ponatinib and bosutinib. Each dot represents one individual and the mean±SEM for each group is also shown. P values were calculated by one-way ANOVA and Tukey's multiple range test. n.s., non-significant, *P<0.05. **P<0.01. ***P<0.001.
K562 cells (CRL-3343; American Type Culture Collection) were maintained in RPMI culture medium supplemented with 10% fetal calf serum (FCS), 2 mM Glutamine, and 1% penicillin-streptomycin (Life Technologies). Cells were maintained and subcultured before confluence every 72 h. For differentiation, cells were treated with 50 μM hemin (#16009-13-5, Sigma-Aldrich) in the presence of 0.1% DMSO alone or with the caspase-1 inhibitor VX-765 (100 μM), the tyrosine kinase inhibitor nilotinib (0.1 μM), the RNA polymerase I inhibitor CX-5461 (200 nM, 1 μM and 10 μM) (all from MedChemExpress). Cells were collected at different time points (0, 24, 48 hours post-hemin addition), centrifuged, washed twice with PBS, and stored at −80° C. for further analysis.
Cells were lysed in 50 mM Tris-HCl (pH 7.5), 150 mM NaCl, 1% (w/v) NP-40 and fresh protease inhibitor (1/20, #P8340, Sigma-Aldrich). Protein quantification was performed with the BCA kit using BSA as standard. Cell lysates ([…]) in SDS sample buffer were subjected to electrophoresis on a polyacrylamide gel and transferred to nitrocellulose membranes. The membranes were incubated for 1 h with TTBS containing 5% (w/v) skimmed dried milk powder or 2% (w/v) BSA. The membranes were immunoblotted in the same buffer 16 h at 4° C. with the different primary antibodies diluted 1/1000. The blots were then washed with TTBS and incubated for 1 h at room temperature with secondary HRP-conjugated antibodies diluted 2,500-fold in 5% (w/v) skimmed milk in TTBS. […]

The test system of another test is zebrafish larvae. Description: Chemical treatment of zebrafish larvae by bath immersion; counting of neutrophils and erythrocytes. In kind it is in vivo, Zebrafish (Danio rerio H.). The procedure:
FIG. 3. ZAKα regulates hematopoiesis in zebrafish through the Nlrp1 inflammasome. Number of neutrophils (B, D, H), erythrocytes (F) and macrophages (J), and caspase-1 activity (K) in 2 dpf larvae either treated from 1 to 2 dpf by bath immersion with 1 μM nilotinib and/or 100 μM anisomycin (A-D) or obtained by injecting one-cell stage embryos with standard or zaka crRNAs/Cas9 complexes (E-K). Representative images of neutrophils (A, C, G), erythrocytes (E) and macrophages (I) are also shown. Each dot represents one individual and the mean±SEM for each group is also shown. P values were calculated using one-way ANOVA and Tukey's multiple range test (B) or Student's t-test (D, F, H, J, K). n.s., non-significant; *P<0.05; **P<0.01; ***P<0.001.
FIG. 6. NLRP1 is activated by phosphorylation of the linker domain after activation of ZAKα and pharmacological inhibition of this signaling pathway promotes erythropoiesis in DBA. (A-D) Number of neutrophils (A-C), and caspase-1 activity (D) in 2 dpf larvae obtained by injection of one-cell stage embryos with human NLRP1 (wild type-WT, S107A and S107D) and treated from 1 to 2 dpf by bath immersion with 1 μM nilotinib (B-D). Representative images of neutrophils (arrows) are also shown in C. (E, F) BMMCs from a DBA patient were incubated for 2 weeks in human methylcellulose complete medium at 37° C. in the presence or absence of the indicated concentrations of nilotinib, and colonies were counted using standard morphological criteria. Each dot represents one individual and the mean±SEM for each group is also shown. P values were calculated by one-way ANOVA and Tukey's multiple range test. n.s., non-significant; *P<0.05; **P<0.01; ***P<0.001; ****P<0.0001.
as §1, §2
Zebrafish (Danio rerio H.) were obtained from the Zebrafish International Resource Center and mated, staged, raised and processed as described in The Zebarfish Book. The lines Tg(mpx:eGFP)^t114, Tg(lyz:DsRED2)^n250, Tg(mfap4:mCherry)^ump6, Tg(gata1a:DsRed)^sd2 Tg(runx1:GAL4)^utn6), Tg(UAS-E1B:NTR-mCherry) and casper (mitfa^w2/w2; mpv17^a9/a9) were previously described. spint1a^hi2217Tg/hi2217Tg was isolated from insertional mutagenesis screens. The experiments performed comply with the Guidelines of the European Union Council (Directive 2010/63/EU) and the Spanish RD 53/2013. The experiments and procedures performed were approved by the Bioethical Committees of the University of Murcia (approval number #669/2020). […]

Another test has as its system HSPCs from DBA patients. Kind of test: Colony assay of PBMCs from DBA patients in methylcellulose medium. In kind it is cell-based, human. Conditions: 2 weeks, indicated concentrations (FIG. 13A). The procedure:
FIG. 13. […] PBMCs from DBA patients were incubated for 2 weeks in human methylcellulose complete medium at 37° C. in the presence or absence of the indicated concentrations of nilotinib, imatinib, dasatinib, bosutinib and ponatinib, and the number of erythroid (A) and myeloid (B) colonies counted using standard morphological criteria. Each dot represents one patient and the means±SEM for each group is also shown.

On to `Cc1cnc(CNC(=O)c2c(=O)c3ccc(N4CCCN(C)CC4)nc3n3c2sc2ccccc23)cn1` [CX-5461], for which the “erythroid differentiation in K562 cells” value in the test on K562 cells (CX-5461 at indicated concentrations 24 h, then 50 μM hemin 24 h, hemoglobin accumulation (FIG. 1D)) is given as “impairs erythroid differentiation”.

In the case of `COc1ccc(C[C@H]2NC[C@H](O)[C@H]2OC(C)=O)cc1` [anisomycin], the “neutrophil number in Nlrp1- and Zaka-deficient larvae” value in the test on zebrafish larvae (larvae 2 dpf, anisomycin) is recorded as “failed to increase neutrophil number”. Also, in the test with zebrafish larvae (wild type larvae 2 dpf, bath immersion 1 to 2 dpf, 1 μM nilotinib, 100 μM anisomycin), the neutrophil number entry is given as “caused neutrophilia”.

On to `Cc1ccc(NC(=O)c2ccc(CN3CCN(C)CC3)cc2)cc1Nc1nccc(-c2cccnc2)n1` [imatinib], for which the “defective erythropoiesis of HSPCs from DBA patients (erythroid colonies)” value in the test with HSPCs from DBA patients is listed as “alleviated defective erythropoiesis”. Moreover, the GATA1 protein amounts entry with K562 cells (K562 cells, indicated concentrations of TKI 24 h, then 50 μM hemin, western blot (FIG. 10A, 11A)) is on record as “enhancing GATA1 amount”. For the same compound, the “erythroid differentiation of K562 cells” value in the test on K562 cells (indicated concentrations of TKI 24 h, then 50 μM hemin (FIG. 10A, 11A)) was “promoted erythroid differentiation of K562 cells by blocking the ZAKα/P38 axis”. Further, in the test on zebrafish larvae (bath immersion 1 to 2 dpf, imatinib 1 and 10 μM, dasatinib 0.1 and 1 μM (FIG. 10B)), the “number of erythrocytes in zebrafish larvae” value is on record as “enhanced the number of erythrocytes”.
